Key:
[1] = Chemical hydrolysis in aqueous phosphate buffer (PBS, pH 7.3); type: physicochemical; settings: phosphate buffered saline (PBS); aqueous 25 mM phosphate buffer, pH 7.3, 37 °C; removal of AB group; n.h. = no hydrolysis observed through cleavage of AB-mask; read-out: PBS pH 7.3 t 1/2 (converted)
Experimental: γ‐(AB,alkyl)‐NTP prodrugs 6 and γ‐alkyl‐NTPs 7 were incubated in aqueous phosphate buffer (PBS, 25 mM, pH 7.3), or were exposed to pig liver esterase (PLE) in phosphate buffer (PBS) and to human CD4^+ T‐lymphocyte cell extracts to study their stability and the product distribution. The hydrolysis mixtures were analyzed by means of analytical rp‐18‐HPLC. The calculated half‐lives of prodrugs 6 (Table 1, t 1/2) reflect the removal of the bioreversible AB group to yield γ‐alkyl‐NTPs 7. Possible hydrolysis pathways and products are summarized in Scheme 4.
As hydrolysis products, a predominant formation of γ‐alkyl‐d4TTPs 7 and a very small amount of d4TDP […] was detected (approximately 3 %). After consumption of the starting material, no further increase of d4TDP concentration was observed. This supports the hypothesis that only the double‐γ‐esterified d4TTP prodrugs 6 were prone to a bond breakage between the γ‐ and β‐phosphate. […] In contrast to previous studies with TriPPPro‐NTPs 5 containing a second cleavable mask (first generation NTP prodrugs),[ ^23 , ^24 , ^25 ] no d4TTP was detected in these studies using 6 or 7. A side reaction occurred during the studies using compounds 7 that led to the formation of thymine by the cleavage of the glycosidic bond as reported before.[ ^19 , ^22 ]
(§1) ProLab 300 from Schott Co.. Thermomixer: Eppendorf Thermomixer 5436 and CellMedia Thermoschüttler basic were used. […]
Chemical hydrolysis of prodrugs of γ-(AB,alkyl) d4TTP 6 as well as the γ-alkyl-NTPs 7,15:
Stock solutions (50mM in DMSO-d6) of compounds 6,7 were prepared. After dilution of 11 µL stock solution with 100 µL milliQ water and 189 µL DMSO-d6 to 1.9mM hydrolysis solutions the reaction was started by addition of 300 µL phosphate buffer saline (PBS, 50mM, pH 7.3). The solution was incubated at 37 C in a thermomixer. An initial aliquot (25 µL) was taken directly and analyzed by analytical HPLC at 265-266 nm. Further aliquots were taken for monitoring the kinetic hydrolysis. The exponential decay curves (pseudo-first order) based on absolute integral values were calculated with commercially available software (OriginPro 9.0G) and yielded the half-lives t1/2 of the prodrugs via one determination. […]
The calculation of t1/2 was performed analogously to that for the chemical hydrolysis studies.
(§2) Preparation of cell extracts: Human CD4+ T-lymphocyte CEM cells were grown in RPMI-1640-based cell culture medium to a final density of ~3·10^6 cells/ml. Then, cells were centrifuged for 10 min at 1,250 rpm at 4 °C, washed twice with cold PBS, and the pellet was re-suspended at 10^8 cells/ml and sonicated (Hielscher Ultrasound Techn., 100% amplitude, 3·times for 10 sec) to destroy cell integrity. The resulting cell suspension was then centrifuged at 10,000 rpm to remove cell debris, and the supernatant divided in aliquots before being frozen at -80 C and used.
(1 picture or pasted object on this page, not shown here)

[2] = Enzyme-catalyzed hydrolysis in human CD4+ T-lymphocyte CEM cell extracts; type: in vitro ADME; settings: for half-life at 0.86 mM: CEM/0 cell extracts (CD4+ T-lymphocytes), human CD4+ T-lymphocyte CEM cell extracts, 37 °C, read-out: CEM/0 cell extracts t 1/2 (converted)
Experimental: The stability of prodrugs 6 and the γ‐alkyl‐NTPs 7 was further investigated in human CD4 ^+ T‐lymphocyte CEM cell extracts. […] Thus, an enzymatic cleavage reaction took place. Half‐lives as low as 0.4 h (6 az) to 5.2 h (6 dz) were determined. […] This is in accordance to our previous results for the DiPPro‐[ ^17 , ^18 ] or the TriPPPro‐compounds 5.[ ^22 , ^23 ] In all cases we observed the predominant formation of γ‐alkyl‐d4TTPs 7 and d4TDP 2 d in very low concentration (Figure 2 B) but no NTP formation was detected, in contrast to the studies using the previously described TriPPPro compounds 5.[ ^23 , ^24 ] However, the difference to the compounds bearing long lipophilic acyl groups was not very pronounced (2‐ to 3‐fold). In the case of γ‐(AB‐C4,alkyl‐C18)‐d4TTP 6 cz, γ‐C18‐d4TTP 7 z was detected as the main product. After 8 h incubation, the ratio of γ‐C18‐d4TTP 7 z and d4TDP 2 d was 5:1. This was in sharp contrast to the studies performed with TriPPPro compounds 5.[ ^23 , ^24 ] There, it was almost impossible to detect significant concentrations of d4TTP due to its fast dephosphorylation to form first d4TDP and finally d4TMP 2 m. […] The formation of thymine or d4TTP 2 t from γ‐C18‐d4TTP 7 z was not detected (Supporting Information, Figure SI2).
as §1
Enzyme-catalyzed hydrolysis of γ-(AB,alkyl)-d4TTPs 6, γ-alkyl-d4TTPs 7,15 and TriPPPros 5 in CEM cell extracts:
18 µL of the appropriate 50 mM DMSO-d6 stock solution was diluted to 6.0 mM hydrolysis solution by addition of 132.0 µL DMSO-d6.
7-10 different samples including 10 µL water and 10 µL hydrolysis solution were prepared in 2 mL Eppendorf® vials. The reaction was started by addition of 50 µL human CEM cell extract and the mixture was incubated at 37 °C for different time periods. The reactions were stopped by addition of 150 μL MeOH. The solution was kept on ice for 5 min followed by centrifugation for 5 min (13000 rpm).
The supernatants were filtered (Chromafil® RC-20/15 MS, 0.2 μm) and stored in liquid nitrogen. When testing, the samples were defrosted and injection volume with 80 μL was used for HPLC analysis. The calculation of t1/2 was performed analogously to that for the chemical hydrolysis studies.
as §2

HIV-1(IIIB) = experiment: Anti-HIV activity assay, HIV-1-infected wild-type CEM/0 cell cultures; type: cell-based; settings: Human immunodeficiency virus 1, IIIB, CCRF-CEM; wild-type CEM/0 cells, HIV-1; mean±SD, n=2-3; read-out: EC50 CEM/0 HIV-1
Experimental: (§3) γ‐(AB,alkyl)‐d4TTP prodrugs 6 and the γ‐alkyl‐d4TTPs 7 were evaluated for their ability to inhibit the replication of HIV in HIV‐1‐ or HIV‐2‐infected wild‐type CEM/0 as well as mutant thymidine‐kinase‐deficient CEM cell cultures (CEM/TK^−). For comparison, two TriPPPro derivatives 5 were also included in this assay.
(§4) Anti-HIV activity assay: Inhibition of HIV-1(IIIB)- and HIV-2(ROD)-induced cytopathicity in wild-type CEM/0 and thymidine kinase-deficient CEM/TK- cell cultures was measured in microtiter 96-well plates containing ~3·105 CEM cells/mL infected with 100 CCID50 of HIV per milliliter and containing appropriate dilutions of the test compounds. After 4−5 days of incubation at 37 °C in a CO2-controlled humidified atmosphere, CEM giant (syncytium) cell formation was examined microscopically. […]
(§5) was defined as the compound concentration required to inhibit HIV-induced giant cell formation by 50%. […]
(§6) The result was visualized by fluorescence imaging. […]
as §6

HIV-2(ROD) [3] = experiment: Anti-HIV activity assay, HIV-2-infected wild-type CEM/0 cell cultures; type: cell-based; settings: Human immunodeficiency virus 2, CCRF-CEM, read-out: EC50 CEM/0 HIV-2
Experimental: as §3, §4, §5, §6, §6

HIV-2(ROD) [4] = experiment: Anti-HIV activity assay, HIV-2-infected thymidine-kinase-deficient CEM/TK- cell cultures; type: cell-based; settings: for EC50: read-out: EC50 CEM/TK− HIV-2; for antiviral activity in CEM/TK− cell cultures (in words): HIV-2-infected CEM/TK− cells
Experimental: as §3, §4, §5, §6, §6

[5] = Cytotoxicity: inhibition of CD4+ T-cell (CEM) proliferation; type: cell-based; settings: human, CEM/0 cells (CD4+ T-cells), 50 % cytostatic concentration, mean±SD, n=2-3
[6] = wild-type CEM/0 cells, HIV-2, mean±SD, n=2-3
[7] = Human immunodeficiency virus 2, thymidine-kinase-deficient CEM/TK− cells, HIV-2, mean±SD, n=2-3

Compound | half-life at 0.92 mM [1] [h] | half-life at 0.86 mM [2] [h] | EC50 (HIV-1(IIIB)) [nM] | EC50 (HIV-2(ROD) [3]; [6]) [nM] | EC50 (HIV-2(ROD) [4]; [7]) [nM] | CC50 [5] [nM] | EC50 (HIV-2(ROD) [3]) [nM] | EC50 (HIV-2(ROD) [4]; Human immunodeficiency virus 2, CEM-TK(-)) [nM] | antiviral activity in CEM/TK− cell cultures (in words) (HIV-2(ROD) [4]) | EC50 (HIV-2(ROD) [4]; thymidine-kinase-deficient CEM/TK− cells, HIV-2, mean±SD, n=2-3) [nM] | EC50 (HIV-2(ROD) [4]; thymidine-kinase-deficient CEM/TK− cells, HIV-2, mean±SD, n=2-3, listed as d4T 1) [nM] | stability in cell extracts (in words) ([2]; CEM cell extracts, incubation up to 30 h)
CCCCCCCCCCCCCCCCCCOP(=O)(OCc1ccc(OC(C)=O)cc1)OP(=O)(O)OP(=O)(O)OCC1C=CC(n2cc(C)c(=O)[nH]c2=O)O1 (stereo not drawn) [6 az] | 196 | 0.4 | 220 ± 50 | 500 ± 140 | 390 ± 300 | 17000 ± 5000 | – | – | – | – | – | –
CCCCCCCCCCCCCCCCCCOP(=O)(OCc1ccc(OC(=O)CC)cc1)OP(=O)(O)OP(=O)(O)OCC1C=CC(n2cc(C)c(=O)[nH]c2=O)O1 (stereo not drawn) [6 bz] | 206 | 1.6 | 190 ± 90 | – | – | 11000 ± 4000 | 250 | 350 ± 250 | – | – | – | –
CCCCCCCCCCCCCCCCCC(=O)Oc1ccc(COP(=O)(OCc2ccc(OC(=O)CCCC)cc2)OP(=O)(O)OP(=O)(O)OCC2C=CC(n3cc(C)c(=O)[nH]c3=O)O2)cc1 (stereo not drawn) [5 b, reference compound] | 50 | 3.3 | 120 ± 50 | 100 ± 30 | 540 ± 410 | 33000 ± 7000 | – | – | active | – | – | –
CCCCOP(=O)(OCc1ccc(OC(=O)CCCC)cc1)OP(=O)(O)OP(=O)(O)OCC1C=CC(n2cc(C)c(=O)[nH]c2=O)O1 (stereo not drawn) [6 cw] | 94 | 0.7 | 500 ± 210 | 670 ± 880 | 9740 ± 3440 | 64000 ± 11000 | – | – | marked loss of activity | – | – | –
CCCCCCCCCCCCCCCOP(=O)(OCc1ccc(OC(=O)CCCCCC)cc1)OP(=O)(O)OP(=O)(O)OCC1C=CC(n2cc(C)c(=O)[nH]c2=O)O1 (stereo not drawn) [6 dy] | 212 | 3.6 | 180 ± 10 | 160 ± 110 | 920 ± 120 | 18000 ± 4000 | – | – | – | – | – | –
CCCCCCCCCCCCCCCOP(=O)(OCc1ccc(OC(=O)CCCC)cc1)OP(=O)(O)OP(=O)(O)OCC1C=CC(n2cc(C)c(=O)[nH]c2=O)O1 (stereo not drawn) [6 cy] | 197 | 3.4 | 250 | 230 ± 180 | 390 ± 300 | 21000 ± 7000 | – | – | – | – | – | –
CCCCCCCCCCCCCCCOP(=O)(OCc1ccc(OC(=O)CCCCCCCCCCCCCCC)cc1)OP(=O)(O)OP(=O)(O)OCC1C=CC(n2cc(C)c(=O)[nH]c2=O)O1 (stereo not drawn) [6 ey] | 249 | 2.5 | 620 ± 300 | 860 ± 40 | 3900 ± 3400 | 48000 ± 31000 | – | – | – | – | – | –
CCCCCCCCC(=O)Oc1ccc(COP(=O)(OCc2ccc(OC(=O)CCCCCCCC)cc2)OP(=O)(O)OP(=O)(O)OCC2C=CC(n3cc(C)c(=O)[nH]c3=O)O2)cc1 (stereo not drawn) [5 a, reference compound] | 52 | 1.6 | 310 ± 10 | 620 ± 300 | 2260 ± 1030 | 52000 ± 1000 | – | – | active | – | – | –
Cc1cn([C@H]2C=C[C@@H](CO)O2)c(=O)[nH]c1=O [Compound 1, 3′‐deoxy‐2′,3′‐didehydrothymidine, reference compound] | – | – | 430 ± 250 | – | – | > 50000 | 220 ± 50 | – | – | > 50000 | 150000 | –
CCCCCCCCCCCCCCCCCCOP(=O)(OCc1ccc(OC(=O)CCCCCC)cc1)OP(=O)(O)OP(=O)(O)OCC1C=CC(n2cc(C)c(=O)[nH]c2=O)O1 (stereo not drawn) [6 dz] | 269 | 5.2 | 170 | 210 ± 60 | 760 ± 110 | 27000 ± 4000 | – | – | – | – | – | –
Cc1cn([C@H]2C[C@H](O)[C@@H](COP(=O)(O)OP(=O)(O)OP(=O)(O)O)O2)c(=O)[nH]c1=O [TTP, reference compound] | – | – | – | – | – | – | – | – | – | – | – | rapidly enzymatically dephosphorylated

Reference: PMC7756582, “Prodrugs of γ‐Alkyl‐Modified Nucleoside Triphosphates: Improved Inhibition of HIV Reverse Transcriptase” (Angewandte Chemie (International Ed. in English), 2020)
